Results from patent US20140045824A1, “METHOD FOR PRODUCING COMPLEX CRYSTAL AND METHOD FOR SCREENING COMPLEX CRYSTAL” (priority 2011, published 2014).

Experiments:
Type in all cases: physicochemical
[1] = Cocrystal screening by heat melting 1-menthol (Example 2), powder X-ray diffraction and thermal analysis; parameters: key: A cocrystal was completely formed.; B: A mixture of a cocrystal and the host compound or guest compound was formed.; C: A cocrystal was not formed (a mixture of the host compound and the guest compound was formed); details: host carbamazepine, equimolar guest, 1-menthol added, 10 hours at 80° C.
Experimental: Carbamazepine and a guest compound shown in Table 4 in an equimolar amount to carbamazepine were weighed and mixed using an agate mortar. […] Thereafter, the obtained mixed powder of carbamazepine, the guest compound, and 1-menthol was heated for 10 hours in an oven at 80° C., and the obtained solids were subjected to powder X-ray diffraction measurement and thermal analysis.

[2] = Cocrystal screening by slurry method (Comparative Examples 4-1 to 4-6), powder X-ray diffraction; parameters: key: A cocrystal was completely formed.; B: A mixture of a cocrystal and the host compound or guest compound was formed.; C: A cocrystal was not formed (a mixture of the host compound and the guest compound was formed); details: host carbamazepine
Experimental: (§1) 3 mg (0.0127 mmoles) of carbamazepine and a guest compound shown in Table 4 in an equimolar amount (0.0127 mmoles) to carbamazepine were weighed and put into a glass container, to which was then added 60 μL of water. These were shaken at room temperature for 7 days, and the obtained residues were subjected to powder X-ray diffraction measurement. 3 mg (0.0127 mmoles) of carbamazepine and a guest compound shown in Table 4 in an equimolar amount (0.0127 mmoles) to carbamazepine were weighed and put into a glass container, to which was then added 60 μL of ethanol. These were shaken at room temperature for 7 days, and the obtained residues were subjected to powder X-ray diffraction measurement. 3 mg (0.0127 mmoles) of carbamazepine and a guest compound shown in Table 4 in an equimolar amount (0.0127 mmoles) to carbamazepine were weighed and put into a glass container, to which was then added 60 μL of tetrahydrofuran. These were shaken at room temperature for 7 days, and the obtained residues were subjected to powder X-ray diffraction measurement. 3 mg (0.0127 mmoles) of carbamazepine and a guest compound shown in Table 4 in an equimolar amount (0.0127 mmoles) to carbamazepine were weighed and put into a glass container, to which was then added 60 μL of toluene. These were shaken at room temperature for 7 days, and the obtained residues were subjected to powder X-ray diffraction measurement. 3 mg (0.0127 mmoles) of carbamazepine and a guest compound shown in Table 4 in an equimolar amount (0.0127 mmoles) to carbamazepine were weighed and put into a glass container, to which was then added 60 μL of ethyl acetate. These were shaken at room temperature for 7 days, and the obtained residues were subjected to powder X-ray diffraction measurement. 3 mg (0.0127 mmoles) of carbamazepine and a guest compound shown in Table 4 in an equimolar amount (0.0127 mmoles) to carbamazepine were weighed and put into a glass container, to which was then added 60 μL of acetone. These were shaken at room temperature for 7 days, and the obtained residues were subjected to powder X-ray diffraction measurement.

[3] = Cocrystal screening by mixing and grinding method (Comparative Example 5); parameters: key: A cocrystal was completely formed.; B: A mixture of a cocrystal and the host compound or guest compound was formed.; C: A cocrystal was not formed (a mixture of the host compound and the guest compound was formed); details: host carbamazepine, equimolar guest, mixed/ground in agate mortar
Source text: (§2) Carbamazepine and a guest compound shown in Table 4 in an equimolar amount to carbamazepine were weighed and mixed using an agate mortar. At that time, particles having a large size to an extent that they could be distinguished through visual inspection were grinded on the agate mortar. The obtained solids were subjected to powder X-ray diffraction measurement and thermal analysis.

[4] = Cocrystal screening by heating method without menthol (Comparative Example 6); parameters: key: A cocrystal was completely formed.; B: A mixture of a cocrystal and the host compound or guest compound was formed.; C: A cocrystal was not formed (a mixture of the host compound and the guest compound was formed); details: host carbamazepine, equimolar guest, no menthol, 4 hours at 80° C.
Experimental: as §2, with “10 mg of this mixed powder was weighed and put into a test tube and heated for 4 hours in an oven at 80° C., and the” for “The”

[5] = Cocrystal screening by slurry method (Comparative Examples 4-1 to 4-6), powder X-ray diffraction; parameters: key: A cocrystal was completely formed.; B: A mixture of a cocrystal and the host compound or guest compound was formed.; C: A cocrystal was not formed (a mixture of the host compound and the guest compound was formed).; —: A residue was not obtained; details: host carbamazepine, slurry in tetrahydrofuran, room temperature 7 days
Experimental: as §1

- Cocrystal formation, Example 2 [1]: A
- Cocrystal formation, Comparative Example 4-6 ([2]; slurry in acetone, room temperature 7 days): C
- Cocrystal formation, Comparative Example 4-2 ([2]; slurry in ethanol, room temperature 7 days): C
- Cocrystal formation, Comparative Example 4-5 ([2]; slurry in ethyl acetate, room temperature 7 days): A
- Cocrystal formation, Comparative Example 4-4 ([2]; slurry in toluene, room temperature 7 days): B
- Cocrystal formation, Comparative Example 4-1 ([2]; slurry in water, room temperature 7 days): C
- Cocrystal formation, Comparative Example 4* ([2]; slurry summary: A if a cocrystal was formed in any one of Comparative Examples 4-1 to 4-6): A
- Cocrystal formation, Comparative Example 5 [3]: C
- Cocrystal formation, Comparative Example 6 [4]: B
- Cocrystal formation, Comparative Example 4-3 [5]: —
SMILES: O=C(O)CC(=O)O [Malonic acid]
